Test results reported in article PMC4811770 (eLife, 2016).
Where a name gives a salt, the structure may show the parent alone. Read-outs that look alike come from different tables or passages of the source.

What was measured:
wild-type sperm = assay: Intracellular pH measurement with BCECF in wild-type sperm; assay type: cell-based, mouse
tmAC = test system: T1, tmAC; assay: Maximal cAMP-dependent FRET ratio of mlCNBD-FRET in HEK293 cells after stimulation of endogenous adenylate cyclases with increasing NKH477 concentrations.; assay type: cell-based; conditions: SD, n = 4
T1 construct: endogenous in HEK293 cells, isoform not specified

[1] = test system: sperm flagellum (mlCNBD-FRET sperm); assay: Dual-view FRET imaging of cAMP dynamics in the flagellum of mlCNBD-FRET sperm; assay type: cell-based, mouse
sperm = conditions: 25 mM bicarbonate, after rapid rise at 1 min
mlCNBD-FRET = molecular target: T2, mlCNBD-FRET (Mesorhizobium japonicum, UniProt Q98GN8); assay: Spectrofluorometric titration of 1 uM purified sensor with cGMP, cerulean/citrine FRET ratio at 430 nm excitation, single-site fit.; assay type: binding; conditions: SD, n = 6
T2 construct: gene mll3241; CNBD (Phe223 to Arg349) with citrine fused to N-terminus and cerulean to C-terminus, C-terminal His10 tag
T2 sequence (Q98GN8 223-349): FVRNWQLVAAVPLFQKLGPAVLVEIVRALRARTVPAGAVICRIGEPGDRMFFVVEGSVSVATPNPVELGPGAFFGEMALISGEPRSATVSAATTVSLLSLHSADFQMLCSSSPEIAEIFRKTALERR

[2] = test system: HEK293 cells expressing mlCNBD-FRET; assay: cAMP/cGMP dynamics (FRET ratio) in HEK293 cells expressing mlCNBD-FRET after drug stimulation; assay type: cell-based; conditions: 20 µM isoproterenol, n = 9
Procedure: Cells were cultured in Ibidi μ-slides (Ibidi, Planegg, Germany) attached to a home-built gravity-flow perfusion system. Measurements were performed using a CellR live-cell imaging system (Olympus) with 20x objective. Cells were perfused with extracellular solution (ES: 120 mM NaCl, 5 mM KCl, 2 mM MgCl2, 2 mM CaCl2, 10 mM HEPES, 10 mM glucose, pH 7.4) to determine the basal FRET ratio and then the stimulus was added (NKH477 and IBMX, Tocris, Wiesbaden, Germany; Isoproterenol and SNP, Sigma-Aldrich). FRET was recorded by exciting cerulean at 436 nm and measuring the emission of cerulean and citrine at 470 nm and 535 nm, respectively. The change in FRET (emissioncerulean/emissioncitrine) was calculated, corrected for bleed-through, normalized to the baseline, and plotted versus time.
For population measurement using a spectrofluorometer (Quantamaster 40, PTI), HEK293 cells were trypsinized at 37°C for 5 min and washed twice with ES. […] Fluorescence spectra at steady-state were recorded with excitation at 430 nm and 0.5 s integration time. For time-resolved measurements, cells were excited at 430 nm and emission was recorded at 470 nm (cerulean) and 530 nm (citrine) at an acquisition frequency of 1 Hz. The change in FRET (emissioncerulean/emissioncitrine) was calculated, corrected for bleed-through, normalized to the baseline, and plotted versus time.

[3] = test system: HEK293 cells expressing SSTR3-mlCNBD-FRET; assay: FRET change in HEK293 cells expressing SSTR3-mlCNBD-FRET; assay type: cell-based; conditions: 20 μM isoproterenol, n = 9
Procedure: Cells were cultured in Ibidi μ-slides (Ibidi, Planegg, Germany) attached to a home-built gravity-flow perfusion system. Measurements were performed using a CellR live-cell imaging system (Olympus) with 20x objective. […] Isoproterenol and SNP, Sigma-Aldrich). FRET was recorded by exciting cerulean at 436 nm and measuring the emission of cerulean and citrine at 470 nm and 535 nm, respectively. The change in FRET (emissioncerulean/emissioncitrine) was calculated, corrected for bleed-through, normalized to the baseline, and plotted versus time. The full-length mouse SSTR3 cloned into pEGFP-N1 was kindly provided by Greg Pazour (UMass Medical School). For expression of SSTR3-tagged mlCNBD-FRET, the SSTR3 coding sequence was amplified by a recombinant PCR reaction to delete the internal NheI site. The fragment was subcloned into […].

[4] = stopped-flow, 10 mM NH4Cl or 25 mM bicarbonate
[5] = perfusion with 25 mM bicarbonate, n = 7

Q: With `O=C([O-])CN(CC(=O)[O-])c1ccccc1OCCOc1ccccc1N(CC(=O)[O-])CC(=O)[O-].[K+].[K+].[K+].[K+]` [BAPTA, 1,2-Bis(2-aminophenoxy)ethane-N,N,N′,N′-tetraacetic acid tetrapotassium salt] as the molecule, how does the “change in pHi” value (wild-type sperm; spectrofluorometer, 3 mM BAPTA reducing [Ca2+]o to 443 nM) read?
A: Its value is “did not change pHi”.

Q: With `Cl.N` [NH4Cl] as the molecule, how does the “change in pHi” value (wild-type sperm; [4]) read?
A: The value was “pronounced alkalization”.

Q: How did the EC50 (tmAC) turn out when `C=CC1(C)CC(=O)C2(O)C(C)(O1)C(OC(C)=O)C(OC(=O)CCN(C)C)C1C(C)(C)CCC(O)C12C` (centres unmarked) [NKH477, colforsin daropate hydrochloride (water-soluble forskolin derivative)] was run?
A: Its EC50 is 3600 nM.

Q: `C=CC1(C)CC(=O)C2(O)C(C)(O1)C(OC(C)=O)C(OC(=O)CCN(C)C)C1C(C)(C)CCC(O)C12C` (centres unmarked) [NKH477] was tested. Which “cAMP change (FRET) in midpiece or principal piece” value ([1]; perfusion with 40 μM NKH477, n = 3) did it give?
A: The value was 0 ± 3%.

Q: What does the source list for `O=C([O-])O.[Na+]` [bicarbonate, NaHCO3]?
A: time for total cAMP levels to decline to basal levels (sperm): ≤ 10 min; change in cAMP (FRET) (mlCNBD-FRET sperm; 25 mM bicarbonate, 10 μM [Ca2+]o): did not change the cAMP concentration; time to steady-state of free cAMP increase (mlCNBD-FRET sperm; 25 mM bicarbonate, 2 mM Ca2+ buffer): about 5 min; change in cAMP (FRET) (mlCNBD-FRET sperm; bicarbonate at 2.2 nM [Ca2+]o (10 μM Ca2+/1 mM BAPTA)): did not further enhance cAMP levels; change in pHi (wild-type sperm; [4]): did not dramatically change pHi; cAMP increase (FRET) in midpiece [1, 5]: 26 ± 3%; cAMP increase (FRET) in principal piece [1, 5]: 22 ± 10%

Q: With `Nc1nc2c(ncn2[C@@H]2O[C@@H]3COP(=O)(O)O[C@H]3[C@H]2O)c(=O)[nH]1` [cGMP, cyclic guanosine 3',5'-monophosphate] as the molecule, how does the Kd (mlCNBD-FRET) read?
A: The Kd was 504 nM.

Q: Which “change of ΔF” value [2] does the source give for `CC(C)NCC(O)c1ccc(O)c(O)c1` (centres unmarked) [isoproterenol] here?
A: Its value is 47 ± 3%.

Q: What about the “increase of FRET ratio” value [3] of the same molecule?
A: The value was “approximately 25%”.
